According to the NIST ThermoML archive (doi:10.1016/j.jct.2018.05.027):
Numbers after ± are expanded uncertainties.

Test: xn = mol fraction of the nth substance listed
Settings: Liquid, Vibrating wire viscometry

Cc1ccc(C)c(C)c1 [1,2,4-trimethylbenzene] + CCC(C)O
viscosity [mPa·s]
Settings	293.15 K	313.15 K	333.15 K	353.15 K
100 kPa, x2 = 0.3011	0.9506 ± 0.016	0.708 ± 0.012	0.539 ± 0.0098	0.43 ± 0.0082
100 kPa, x2 = 0.5001	1.108 ± 0.018	0.7802 ± 0.013	0.5777 ± 0.01	0.4439 ± 0.0084
100 kPa, x2 = 0.7999	1.834 ± 0.03	1.097 ± 0.018	0.7185 ± 0.013	0.4963 ± 0.0092
1000 kPa, x2 = 0.3011	0.9531 ± 0.016	0.7098 ± 0.012	0.5411 ± 0.0098	0.436 ± 0.0083
1000 kPa, x2 = 0.5001	1.117 ± 0.018	0.7964 ± 0.014	0.5881 ± 0.01	0.4481 ± 0.0085
1000 kPa, x2 = 0.7999	1.863 ± 0.03	1.131 ± 0.019	0.7301 ± 0.013	0.5 ± 0.0093
5000 kPa, x2 = 0.3011	0.9988 ± 0.017	0.7427 ± 0.013	0.571 ± 0.01	0.4507 ± 0.0085
5000 kPa, x2 = 0.5001	1.173 ± 0.019	0.8335 ± 0.014	0.6122 ± 0.011	0.467 ± 0.0088
5000 kPa, x2 = 0.7999	1.964 ± 0.032	1.187 ± 0.02	0.7583 ± 0.013	0.5157 ± 0.0095
10000 kPa, x2 = 0.3011	1.051 ± 0.017	0.7727 ± 0.013	0.5928 ± 0.011	0.4678 ± 0.0088
10000 kPa, x2 = 0.5001	1.235 ± 0.02	0.8676 ± 0.015	0.6383 ± 0.011	0.4891 ± 0.0091
10000 kPa, x2 = 0.7999	2.099 ± 0.034	1.244 ± 0.021	0.7963 ± 0.014	0.5386 ± 0.0098
20000 kPa, x2 = 0.3011	1.137 ± 0.019	0.8356 ± 0.014	0.634 ± 0.011	0.4988 ± 0.0092
20000 kPa, x2 = 0.5001	1.329 ± 0.022	0.9318 ± 0.016	0.6899 ± 0.012	0.5215 ± 0.0096
20000 kPa, x2 = 0.7999	2.326 ± 0.037	1.363 ± 0.022	0.8656 ± 0.015	0.584 ± 0.01
30000 kPa, x2 = 0.3011	1.238 ± 0.02	0.9034 ± 0.015	0.6817 ± 0.012	0.5358 ± 0.0097
30000 kPa, x2 = 0.5001	1.462 ± 0.024	1.031 ± 0.017	0.739 ± 0.013	0.5615 ± 0.01
30000 kPa, x2 = 0.7999	2.611 ± 0.042	1.515 ± 0.025	0.9569 ± 0.016	0.6316 ± 0.011
40000 kPa, x2 = 0.3011	1.334 ± 0.022	0.9814 ± 0.016	0.7313 ± 0.013	0.57 ± 0.01
40000 kPa, x2 = 0.5001	1.591 ± 0.026	1.108 ± 0.018	0.7961 ± 0.014	0.5952 ± 0.011
40000 kPa, x2 = 0.7999	2.897 ± 0.046	1.666 ± 0.027	1.039 ± 0.017	0.6809 ± 0.012
50000 kPa, x2 = 0.3011	1.452 ± 0.024	1.055 ± 0.017	0.784 ± 0.013	0.605 ± 0.011
50000 kPa, x2 = 0.5001	1.739 ± 0.028	1.204 ± 0.02	0.8558 ± 0.015	0.6372 ± 0.011
50000 kPa, x2 = 0.7999	3.229 ± 0.051	1.835 ± 0.03	1.13 ± 0.019	0.7349 ± 0.013
60000 kPa, x2 = 0.3011	1.57 ± 0.025	1.132 ± 0.019	0.8388 ± 0.014	0.645 ± 0.011
60000 kPa, x2 = 0.5001	1.906 ± 0.031	1.3 ± 0.021	0.9176 ± 0.015	0.6813 ± 0.012
60000 kPa, x2 = 0.7999	3.561 ± 0.056	2.005 ± 0.032	1.219 ± 0.02	0.7906 ± 0.014
70000 kPa, x2 = 0.3011	1.702 ± 0.027	1.224 ± 0.02	0.8962 ± 0.015	0.6863 ± 0.012
70000 kPa, x2 = 0.5001	2.061 ± 0.033	1.394 ± 0.023	0.9822 ± 0.016	0.726 ± 0.013
70000 kPa, x2 = 0.7999	3.917 ± 0.062	2.187 ± 0.035	1.321 ± 0.022	0.849 ± 0.015
80000 kPa, x2 = 0.3011	1.851 ± 0.03	1.303 ± 0.021	0.9559 ± 0.016	0.7294 ± 0.013
80000 kPa, x2 = 0.5001	2.257 ± 0.036	1.502 ± 0.024	1.046 ± 0.017	0.7743 ± 0.013
80000 kPa, x2 = 0.7999	4.274 ± 0.068	2.368 ± 0.038	1.424 ± 0.023	0.9092 ± 0.015
100000 kPa, x2 = 0.3011	2.152 ± 0.034	1.491 ± 0.024	1.089 ± 0.018	0.821 ± 0.014
100000 kPa, x2 = 0.5001	2.62 ± 0.042	1.716 ± 0.028	1.196 ± 0.02	0.871 ± 0.015
100000 kPa, x2 = 0.7999	5.09 ± 0.08	2.741 ± 0.044	1.653 ± 0.027	1.04 ± 0.017
120000 kPa, x2 = 0.3011	2.47 ± 0.039	1.667 ± 0.027	1.238 ± 0.02	0.9204 ± 0.015
120000 kPa, x2 = 0.5001	3.033 ± 0.048	1.936 ± 0.031	1.366 ± 0.022	0.9782 ± 0.016
120000 kPa, x2 = 0.7999	6.117 ± 0.096	3.219 ± 0.051	1.898 ± 0.031	1.175 ± 0.019
140000 kPa, x2 = 0.3011	2.838 ± 0.045	1.904 ± 0.031	1.385 ± 0.023	1.038 ± 0.017
140000 kPa, x2 = 0.5001	3.493 ± 0.055	2.192 ± 0.035	1.528 ± 0.025	1.093 ± 0.018
140000 kPa, x2 = 0.7999	7.143 ± 0.11	3.693 ± 0.059	2.144 ± 0.034	1.339 ± 0.022
